In US6177253A, “Screening methods for the identification of anti-HIV compounds employing a cyclosporine-specific monoclonal antibody that cross-reacts with HIV-1 p24” (priority 1998, dated 2001):
Entries after “also recorded” stand apart in the source; their conditions may differ.

Tests used:
[1] = test system: R575; experiment: Inhibition RIA of [3H]CsA binding to rabbit anti-cyclosporine antibodies R575; settings: for affinity group for the rabbit antibodies: inhibition RIA, in words; for IC50: read-out: IC50 = Concentration for 50% inhibition, inhibition of [3H] dihydro CsA binding to rabbit antibody R575
Description: Serum antibodies were detected by a modification of the published radioimmunoassay (5, 12). […] Binding by diluted preimmune serum was used as a control. Free and bound ligand were separated with charcoal supplied by Sandoz according to their procedure. […] The cyclosporin derivatives were dissolved in 100% ethanol at a concentration of 5.0 mg/ml, stored at -20° C., and diluted to final concentrations of 0.27 nM to 2.7 μM in Sandoz buffer B for the inhibition experiments.

[2] = single break in a peptide bond by N O shift; cited from earlier work
[3] = test system: H6 1.5; experiment: ELISA inhibition by singly modified Cs-derivatives, McAb H6 1.5; format: binding, BALB/c mice; settings: group III; D-Lys^8 -Cs-BSA coating
Description: (§1) A second ELISA Procedure used conjugates of D-Lys^8 -Cs-BSA and Thr^2 -Cs-BSA for coating (Queeniaux et al., 1987b). An indirect detection system consisting of rabbit anti-mouse Ig followed by alkaline phosphates-conjugated goat anti-rabbit IgG was performed as previously described (Queenlaux et al., 1987b).
(§2) The binding of the 22 McAbs to these two Cs-BSA conjugates was also found to correlate well with their fine specificity patterns, as characterized with a set of 28-36 Cs derivatives. Typical ELISA curves showing McAb binding either to D-Lys^8 -Cs-BSA (panel A) or to Thr^2 -Ca-BSA (panel B) and inhibited by Cs or Cs derivatives are shown in FIGS. 8A-8B, D-Lys^8 -Cs-BSA was subsequently used for coating in the inhibition experiments, except for those McAbs binding selectively to Thr^2 -Cs-BSA (see Table 4 and FIGS. 7A-7C). An example of the binding of 26 Cs derivatives by McAbs belonging to each of the five specificity groups mentioned above is reported in Table 5. The results are expressed as the difference of IC50 (in log10) between the Cs derivatives and Cs. All Cs-derivatives used in this study were selected for having a conserved peptide ring conformation compared with CsA (as determined in NMR or X-ray diffraction).

[4] = test system: C4 2.2; experiment: ELISA inhibition by singly modified Cs-derivatives, McAb C4 2.2; format: binding, BALB/c mice; settings: group V; McAb binds selectively to Thr^2 -Cs-BSA coating
Description: as §1, §2

[5] = test system: G7 1.1; experiment: ELISA inhibition by singly modified Cs-derivatives, McAb G7 1.1; format: binding, BALB/c mice; settings: group I; McAb binds selectively to Thr^2 -Cs-BSA coating
Description: as §1, §2

[6] = test system: B11 1.4; experiment: ELISA inhibition by singly modified Cs-derivatives, McAb B11 1.4; format: binding, BALB/c mice; settings: group IV; D-Lys^8 -Cs-BSA coating
Description: as §1, §2

[7] = test system: H4 1.3; experiment: ELISA inhibition by singly modified Cs-derivatives, McAb H4 1.3; format: binding, BALB/c mice; settings: group II; D-Lys^8 -Cs-BSA coating
Description: as §1, §2

SMILES: C/C=C/C[C@@H](C)[C@@H](O)[C@H]1C(=O)N[C@@H]([C@@H](C)OC(C)=O)C(=O)N(C)CC(=O)N(C)[C@@H](CC(C)C)C(=O)N[C@@H](C(C)C)C(=O)N(C)[C@@H](CC(C)C)C(=O)N[C@@H](C)C(=O)N[C@H](C)C(=O)N(C)[C@@H](CC(C)C)C(=O)N(C)[C@@H](CC(C)C)C(=O)N(C)[C@@H](C(C)C)C(=O)N1C [compound 665]
- affinity group for the rabbit antibodies [1]: high affinity; also recorded: bind best
- IC50 [1]: 4.8 nM

SMILES: C/C=C/C[C@@H](C)[C@@H](O)[C@H]1C(=O)N[C@@H](CC)C(=O)N(C)CC(=O)N(C)[C@@H](CC(C)C)C(=O)N[C@@H](C(C)C)C(=O)N(C)[C@@H](CC(C)C)C(=O)N[C@@H](C)C(=O)N[C@H](COC(C)(C)C)C(=O)N(C)[C@@H](CC(C)C)C(=O)N(C)[C@@H](CC(C)C)C(=O)N(C)[C@@H](C(C)C)C(=O)N1C [compound 717]
- affinity group for the rabbit antibodies [1]: inhibits very poorly; also recorded: low affinity
- inhibition of [^3 H] CsA binding obtainable ([1]; maximal inhibition): more than 50%
- IC50 [1]: 2700 nM

SMILES: C/C=C/C[C@@H](C)[C@@H](O)[C@H]1C(=O)N[C@@H](C(C)C)C(=O)N(C)CC(=O)N(C)[C@@H](CC(C)C)C(=O)N[C@@H](C(C)C)C(=O)N(C)[C@@H](CC(C)C)C(=O)N[C@@H](C)C(=O)N[C@H](C)C(=O)N(C)[C@@H](CC(C)C)C(=O)N(C)[C@@H](CC(C)C)C(=O)N(C)[C@@H](C(C)C)C(=O)N1C [CsD]
- affinity group for the rabbit antibodies [1]: high affinity; also recorded: bind best
- IC50 [1]: 4.3 nM

SMILES: C/C=C/C[C@@H](C)[C@@H](OC(C)=O)[C@H]1C(=O)N[C@@H](CC)C(=O)N(C)CC(=O)N(C)[C@@H](CC(C)C)C(=O)N[C@@H](C(C)C)C(=O)N(C)[C@@H](CC(C)C)C(=O)N[C@@H](C)C(=O)N[C@H](C)C(=O)N(C)[C@@H](CC(C)C)C(=O)N(C)[C@@H](CC(C)C)C(=O)N(C)[C@@H](C(C)C)C(=O)N1C [compound 243]
- affinity group for the rabbit antibodies [1]: high affinity; also recorded: bind best
- IC50 [1]: 6 nM

SMILES: C/C=C/C[C@@H](C)[C@@H](O)[C@H]1C(=O)N[C@@H](CC)C(=O)N2CCC[C@H]2C(=O)N(C)[C@@H](CC(C)C)C(=O)N[C@@H](C(C)C)C(=O)N(C)[C@@H](CC(C)C)C(=O)N[C@@H](C)C(=O)N[C@H](C)C(=O)N(C)[C@@H](CC(C)C)C(=O)N(C)[C@@H](CC(C)C)C(=O)N(C)[C@@H](C(C)C)C(=O)N1C [compound 582]
- affinity group for the rabbit antibodies [1]: Moderate affinities
- IC50 [1]: 12 nM

SMILES: C/C=C/C[C@@H](C)[C@H]1OC(=O)[C@H](C(C)C)N(C)C(=O)[C@H](CC(C)C)N(C)C(=O)[C@H](CC(C)C)N(C)C(=O)[C@@H](C)NC(=O)[C@H](C)NC(=O)[C@H](CC(C)C)N(C)C(=O)[C@H](C(C)C)NC(=O)[C@H](CC(C)C)N(C)C(=O)CN(C)C(=O)[C@H](CC)NC(=O)[C@H]1NC [iso-CsA]
- biological activity [2]: loss of activity

SMILES: C/C=C/C[C@@H](C)[C@@H](O)[C@H]1C(=O)N[C@@H](CC)C(=O)N(C)CC(=O)N(C)[C@@H](CC(C)C)C(=O)N[C@@H](C(C)C)C(=O)N(C)[C@H](C)C(=O)N[C@@H](C)C(=O)N[C@H](C)C(=O)N(C)[C@@H](CC(C)C)C(=O)N(C)[C@@H](CC(C)C)C(=O)N(C)[C@@H](C(C)C)C(=O)N1C [compound 039]
- affinity group for the rabbit antibodies [1]: Moderate affinities
- IC50 [1]: 18 nM

SMILES: C/C=C/C[C@@H](C)[C@@H](O)[C@H]1C(=O)N[C@@H]([C@@H](C)O)C(=O)N(C)CC(=O)N(C)[C@@H](CC(C)C)C(=O)N[C@@H](C(C)C)C(=O)N(C)[C@@H](CC(C)C)C(=O)N[C@@H](C)C(=O)N[C@H](C)C(=O)N(C)[C@@H](CC(C)C)C(=O)N(C)[C@@H](CC(C)C)C(=O)N(C)[C@@H](C(C)C)C(=O)N1C [CsC]
- affinity group for the rabbit antibodies [1]: Moderate affinities
- affinity group for the rabbit antibodies ([1]; listed as CSC): moderate affinities
- IC50 [1]: 11.5 nM

SMILES: C/C=C/C[C@@H](C)[C@@H](O)[C@H]1C(=O)N[C@@H](CC)C(=O)N(C)CC(=O)N(C)[C@@H](CC(C)C)C(=O)N[C@@H](C(C)C)C(=O)N(C)[C@@H](CC(C)C)C(=O)N[C@@H](C)C(=O)N[C@H](C)C(=O)N(C)[C@@H](CC(C)C)C(=O)N(C)[C@@H](CC(C)C)C(=O)N(C)[C@@H]([C@@H](C)CC)C(=O)N1C [compound 032]
- affinity group for the rabbit antibodies [1]: high affinity; also recorded: bind best
- IC50 [1]: 7 nM

SMILES: C/C=C/C[C@@H](C)[C@@H](O)[C@H]1C(=O)N[C@@H](CC)C(=O)N(C)CC(=O)N(C)[C@@H](CC(C)C)C(=O)N[C@@H](C(C)C)C(=O)N(C)[C@@H](Cc2ccccc2)C(=O)N[C@@H](C)C(=O)N[C@H](C)C(=O)N(C)[C@@H](CC(C)C)C(=O)N(C)[C@@H](CC(C)C)C(=O)N(C)[C@@H](C(C)C)C(=O)N1C [MeLeu^6 MePhe]
- log10 difference in the concentrations of Cs-derivatives and unmodified Cs required to achieve 50% inhibition in ELISA, McAb H6 1.5 [3]: 1.7 log10
- log10 difference in the concentrations of Cs-derivatives and unmodified Cs required to achieve 50% inhibition in ELISA, McAb C4 2.2 [4]: 1.3 log10
- log10 difference in the concentrations of Cs-derivatives and unmodified Cs required to achieve 50% inhibition in ELISA, McAb G7 1.1 [5]: 0.1 log10
- log10 difference in the concentrations of Cs-derivatives and unmodified Cs required to achieve 50% inhibition in ELISA, McAb B11 1.4 [6]: 0.0 log10
- log10 difference in the concentrations of Cs-derivatives and unmodified Cs required to achieve 50% inhibition in ELISA, McAb H4 1.3 [7]: 1.2 log10

SMILES: C/C=C/C[C@@H](C)[C@@H](O)[C@H]1C(=O)N[C@@H](CC)C(=O)N(C)CC(=O)N(C)[C@@H](CC(C)C)C(=O)N[C@@H](C(C)C)C(=O)N(C)[C@@H](CC(C)C)C(=O)N[C@@H](C)C(=O)N[C@H](CO)C(=O)N(C)[C@@H](CC(C)C)C(=O)N(C)[C@@H](CC(C)C)C(=O)N(C)[C@@H](C(C)C)C(=O)N1C [D-Ala^8 D-Ser]
- log10 difference in the concentrations of Cs-derivatives and unmodified Cs required to achieve 50% inhibition in ELISA, McAb H6 1.5 [3]: < 0.0 log10
- log10 difference in the concentrations of Cs-derivatives and unmodified Cs required to achieve 50% inhibition in ELISA, McAb C4 2.2 [4]: 0.3 log10
- log10 difference in the concentrations of Cs-derivatives and unmodified Cs required to achieve 50% inhibition in ELISA, McAb G7 1.1 [5]: 1.3 log10
- log10 difference in the concentrations of Cs-derivatives and unmodified Cs required to achieve 50% inhibition in ELISA, McAb B11 1.4 [6]: 0.1 log10
- log10 difference in the concentrations of Cs-derivatives and unmodified Cs required to achieve 50% inhibition in ELISA, McAb H4 1.3 [7]: 0.0 log10

SMILES: C/C=C/C[C@@H](C)[C@@H](O)[C@H]1C(=O)N[C@@H](CC)C(=O)N(C)CC(=O)N(C)[C@@H](CC(C)C)C(=O)N[C@@H](C(C)C)C(=O)N(C)[C@@H](CC(C)C)C(=O)N[C@@H](C)C(=O)N[C@H](C)C(=O)N(C)[C@@H](CC(C)C)C(=O)N(C)[C@@H](CC(C)C)C(=O)N(C)[C@@H]([C@H](C)CC)C(=O)N1C [MeVal^11 aMeIle]
- log10 difference in the concentrations of Cs-derivatives and unmodified Cs required to achieve 50% inhibition in ELISA, McAb H6 1.5 [3]: 0.3 log10
- log10 difference in the concentrations of Cs-derivatives and unmodified Cs required to achieve 50% inhibition in ELISA, McAb C4 2.2 [4]: 0.0 log10
- log10 difference in the concentrations of Cs-derivatives and unmodified Cs required to achieve 50% inhibition in ELISA, McAb G7 1.1 [5]: 0.0 log10
- log10 difference in the concentrations of Cs-derivatives and unmodified Cs required to achieve 50% inhibition in ELISA, McAb B11 1.4 [6]: < 0.0 log10
- log10 difference in the concentrations of Cs-derivatives and unmodified Cs required to achieve 50% inhibition in ELISA, McAb H4 1.3 [7]: 0.3 log10
